Legend:
[1] = target: T1, Cathepsin K (Homo sapiens, UniProt P43235); experiment: Inhibition of human recombinant cathepsin K by fluorescence assay
T1 sequence (P43235 whole entry): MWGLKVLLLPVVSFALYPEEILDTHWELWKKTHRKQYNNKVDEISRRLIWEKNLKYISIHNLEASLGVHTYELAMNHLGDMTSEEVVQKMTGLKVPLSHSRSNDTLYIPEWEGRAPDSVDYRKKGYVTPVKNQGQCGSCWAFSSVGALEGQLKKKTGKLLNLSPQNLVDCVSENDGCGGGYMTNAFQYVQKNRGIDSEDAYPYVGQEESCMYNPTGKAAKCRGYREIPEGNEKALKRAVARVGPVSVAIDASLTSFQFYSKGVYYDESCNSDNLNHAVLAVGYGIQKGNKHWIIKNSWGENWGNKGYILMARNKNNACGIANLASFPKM

[2] = target: Procathepsin L (Homo sapiens, UniProt P07711); experiment: Inhibition of human recombinant cathepsin L by fluorescence assay
[3] = target: Cathepsin S (Homo sapiens, UniProt P25774); experiment: Inhibition of human recombinant cathepsin S by fluorescence assay
Chain of Cathepsin S (P25774 whole entry): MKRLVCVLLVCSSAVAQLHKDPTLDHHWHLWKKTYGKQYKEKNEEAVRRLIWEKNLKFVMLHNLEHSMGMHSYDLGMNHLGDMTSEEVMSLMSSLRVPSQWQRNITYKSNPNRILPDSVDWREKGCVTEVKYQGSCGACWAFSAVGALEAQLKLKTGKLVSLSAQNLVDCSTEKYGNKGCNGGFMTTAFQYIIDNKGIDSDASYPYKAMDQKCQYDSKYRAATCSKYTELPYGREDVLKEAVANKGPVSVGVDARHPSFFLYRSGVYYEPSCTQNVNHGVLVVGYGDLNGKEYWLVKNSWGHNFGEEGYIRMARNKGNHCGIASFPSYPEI

Chain of Procathepsin L (P07711 whole entry): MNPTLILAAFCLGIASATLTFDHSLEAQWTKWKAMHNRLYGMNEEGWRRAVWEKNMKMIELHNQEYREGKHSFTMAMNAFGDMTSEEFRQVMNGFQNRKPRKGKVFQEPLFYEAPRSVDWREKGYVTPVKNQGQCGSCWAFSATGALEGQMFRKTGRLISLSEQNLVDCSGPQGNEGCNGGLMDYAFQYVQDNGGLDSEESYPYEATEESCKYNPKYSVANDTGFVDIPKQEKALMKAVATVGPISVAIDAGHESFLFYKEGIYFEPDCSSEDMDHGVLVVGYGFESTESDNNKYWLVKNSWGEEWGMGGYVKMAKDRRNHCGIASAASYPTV

IC50 [1]	IC50 [2]	IC50 [3]	Structure (SMILES)
0.0048 µM	> 1 µM	> 1 µM	CC(C)(C)CN(Cc1ccc(Cn2cncn2)cc1)c1ccnc(C#N)n1
0.0071 µM	0.98 µM	0.76 µM	CN1CCN(c2ccc(CC#Cc3cnc(C#N)nc3NCC(C)(C)C)cc2)CC1
0.069 µM	> 1 µM	> 1 µM	CC(C)(C)CN(Cc1ccccc1)c1ccnc(C#N)n1
0.0071 µM	> 1 µM	> 1 µM	COc1ccc(S(=O)(=O)N2CCN(CC#Cc3cnc(C#N)nc3NCC(C)(C)C)CC2)cc1
0.0032 µM	0.15 µM	0.84 µM	CC(C)(C)CNc1nc(C#N)ncc1C#CCN1CCc2ccccc2C1
0.01 µM	> 1 µM	0.92 µM	CC(C)(C)CNc1nc(C#N)ncc1C#CCN1Cc2ccccc2C1
0.0038 µM	> 1 µM	> 1 µM	CN1CCN(CC#Cc2ccc(CN(CC(C)(C)C)c3ccnc(C#N)n3)cc2)CC1
0.0086 µM	1 µM	0.46 µM	CC(C)(C)CNc1nc(C#N)ncc1C#CCOc1cccnc1
0.0036 µM	> 1 µM	> 1 µM	CC(C)(C)CN(Cc1ccc(C#CCN2CCC(N3CCCCC3)CC2)cc1)c1ccnc(C#N)n1
0.0086 µM	> 1 µM	> 1 µM	CC(C)(C)CN(Cc1ccc(C#CCn2cncn2)cc1)c1ccnc(C#N)n1
0.0072 µM	0.19 µM	0.068 µM	CC(C)(C)CNc1nc(C#N)ncc1C#CCn1cnc(Cl)c1Cl
0.0073 µM	> 1 µM	> 1 µM	CC(C)(C)CN(Cc1ccc(C#CCN2CCCCC2)cc1)c1ccnc(C#N)n1
0.0064 µM	> 1 µM	> 1 µM	CC(=O)N1CCN(CC#Cc2ccc(CN(CC(C)(C)C)c3ccnc(C#N)n3)cc2)CC1
0.0037 µM	> 1 µM	0.8 µM	CC(C)(C)CNc1nc(C#N)ncc1C#CCN1CCN(S(=O)(=O)CCCCl)CC1
0.019 µM	> 1 µM	> 1 µM	CC(C)(C)CN(Cc1ccc(I)cc1)c1ccnc(C#N)n1
